From US20130150363A1, “Method of Treating Cancer Using a cMET and AXL Inhibitor and an ErbB Inhibitor” (GlaxoSmithKline, priority 2008, published 2013)

Experiments:
[1] = test system: HT29 colon carcinoma cells; assay: Cell growth inhibition (CellTiter-Glo), HT29; format: cell-based; conditions: Homo sapiens, HT-29, 72 h, 3 days
Text: (§1) Esophageal carcinoma cell line OE33 was purchased from ECACC European Collection of Cell Cultures (UK). Breast cancer cell line JIMT-1 and gastric carcinoma cell line MKN-45 were purchased from Deutsche Sammlung von Mikroorganismen and Zellkulturen GmbH (Germany); KPL-4, a human breast cancer cell line was kindly provided by Prof. J Kurebayashi (Kawasaki Medical School, Kurashiki, Japan). […] The LICR-LON-HN5 head and neck carcinoma cell line (HN5) was a gift from the Institute of Cancer Research, Surrey, U.K. HN5C12 was developed by single-cell cloning of HN5 followed by exposure to increasing concentrations of lapatinib. […] Cell growth inhibition was determined via CellTiter-Glo cell viability assays. […] ATP levels were determined by adding Cell Titer Glo0 (Promega), incubating for 20 minutes then the luminescent signal was read on the SpectraMax M5 plate with a 0.5 second integration time. Cell growth was calculated relative to vehicle (DMSO) treated control wells. […] CI values were calculated with the interpolated IC50 values and the mutually non-exclusive equation derived by Chou and […](a)+Db/IC50(b)+(Da×Db)/(IC50(a)×IC50(b)) where IC50(a) is the IC50 of the inhibitor A; IC50(b) is the IC50 for the inhibitor B; […] […] EOHSA at each dose was calculated as the minimum difference in average % inhibition between the combination and each monotherapy, from the appropriate ANOVA contrast. […]

[2] = test system: SW48 colon carcinoma cells; assay: Cell growth inhibition (CellTiter-Glo), SW48; format: cell-based; conditions: Homo sapiens, SW48, 72 h, 3 days
Text: as §1

[3] = test system: HS746T gastric carcinoma cells; assay: Cell growth inhibition (CellTiter-Glo), HS746T; format: cell-based; conditions: Homo sapiens, HS746T (HER3-low)
Text: as §1

[4] = test system: BT474 breast carcinoma cells; assay: Cell growth inhibition (CellTiter-Glo), BT474; format: cell-based; conditions: Homo sapiens, BT-474, 72 h, 3 days
Text: Esophageal carcinoma cell line OE33 was purchased from ECACC European Collection of Cell Cultures (UK). Breast cancer cell line JIMT-1 and gastric carcinoma cell line MKN-45 were purchased from Deutsche Sammlung von Mikroorganismen and Zellkulturen GmbH (Germany); KPL-4, a human breast cancer cell line was kindly provided by Prof. J Kurebayashi (Kawasaki Medical School, Kurashiki, Japan). […] The LICR-LON-HN5 head and neck carcinoma cell line (HN5) was a gift from the Institute of Cancer Research, Surrey, U.K. HN5C12 was developed by single-cell cloning of HN5 followed by exposure to increasing concentrations of lapatinib. […] Cell growth inhibition was determined via CellTiter-Glo cell viability assays. […] BT474-J4 and HN5C12 were washed with PBS and plated in their culture media without lapatinib. […] ATP levels were determined by adding Cell Titer Glo0 (Promega), incubating for 20 minutes then the luminescent signal was read on the SpectraMax M5 plate with a 0.5 second integration time. Cell growth was calculated relative to vehicle (DMSO) treated control wells. […] EOHSA at each dose was calculated as the minimum difference in average % inhibition between the combination and each monotherapy, from the appropriate ANOVA contrast. […] The p-values for both synergy and antagonism were calculated using this adjustment.

[5] = test system: BT474-J4 cells; assay: Cell apoptosis assays (Cell Death ELISA, Caspase-Glo 3/7), BT474-J4; format: cell-based, human; conditions: BT474-J4, presence of HGF (FIG. 4, FIG. 5B)
Experimental: Cell apoptosis was measured by both a cell death ELISA method, which measures DNA fragmentation, a hallmark of apoptosis; and Caspase-Glo® 3/7 assay which detects the activity of caspase 3/7, one of the execution enzymes for apoptosis in cells.
The Cell Death ELISA^Plus kit (Roche, Mannheim, Germany) was used according to the manufacturer's instructions. Cells were seeded in 96-well plates at 10,000 per well. After 24 h, cells were dosed and grown for an additional 48 h in RPMI 1640 with 10% FBS in 5% CO2 at 37° C. Cytoplasmic fractions of control and treated cells were transferred into streptavidin-coated 96-well plates and incubated with biotinylated mouse antihistone antibody and peroxidase-conjugated mouse anti-DNA antibody at room temperature for 2 h. Absorbance was determined at 405-490 nm using a Spectra Max Gemini microplate reader (Molecular Devices, Sunnyvale, Calif.).
The Caspase-Glo® 3/7 assay (Promega) is a homogeneous luminescent assay that measures caspase-3 and -7 activities. Cells were seeded in 96-well plates at 5,000 per well. […] Caspase 3/7 activity was detected by adding luminogenic caspase-3/7 substrate, which contains the tetrapeptide sequence DEVD, in a reagent optimized for caspase activity, luciferase activity and cell lysis, according to the manufacturer's instructions.

[6] = test system: JIMT-1 breast cancer cells; assay: Cell growth inhibition (CellTiter-Glo), JIMT-1; format: cell-based; conditions: Homo sapiens, JIMT-1, 72 h, 3 days
Text: as §1

IC50 ([1]; colon_HT-29, +HGF (2 ng/mL)) [µM] | IC50 ([1]; colon_HT-29, −HGF) [µM] | IC50 ([2]; colon_SW48, +HGF (2 ng/mL)) [µM] | IC50 ([2]; colon_SW48, −HGF) [µM] | IC50 ([3]; +HRG (10 ng/mL)) [µM] | IC50 ([3]; −HRG) [µM] | IC50 ([4]; breast_BT474, +HGF (2 ng/mL)) [µM] | IC50 ([4]; breast_BT474, −HGF) [µM] | IC50 ([6]; breast_JimT1, +HGF (2 ng/mL)) [µM] | IC50 ([6]; breast_JimT1, −HGF) [µM] | SMILES | apoptosis induction (DNA fragmentation and caspase 3/7 activation) [5]
> 10 | > 10 | 2.62 | 2.35 |  |  |  |  |  |  | C#Cc1cccc(Nc2ncnc3cc(OCCOC)c(OCCOC)cc23)c1 [Erlotinib, N-(3-ethynylphenyl)-6,7-bis{[2-(methyloxy)ethyl]oxy}-4-quinazolinamine] | 
 |  |  |  | 7.37 | 7.69 | 0.12 | 0.11 | > 10 | > 10 | CS(=O)(=O)CCNCc1ccc(-c2ccc3ncnc(Nc4ccc(OCc5cccc(F)c5)c(Cl)c4)c3c2)o1 [Lapatinib, N-(3-chloro-4-{[(3-fluorophenyl)methyl]oxy}phenyl)-6-[5-({[2-(methylsulfonyl)ethyl]amino}methyl)-2-furanyl]-4-quinazolinamine] | only in BT474
